Measured values published in a melting point compilation (Tetko et al.; mined from patent text by program, amines drawn as free bases though some values may be those of a salt).

Structure (SMILES)	melting point [°C]
NC(=O)CC(C(N)=O)n1cccc1 (centres undefined)	158 to 165
CC1CCN(c2scc(C(C)(C)C)c2C#N)C1=O (centres undefined)	92 to 94
CCC(=O)OCC1(C)OCC2(CO1)COC(C)(COC(=O)CC)OC2 (centres undefined)	55 to 56
CCC(=O)C1=C(O)CC(c2c(C)c(C)c3c(c2C)OC(C)(C)C3)CC1=O (centres undefined)	74 to 76
CN(C)C(N)=NC(=O)C(Br)c1c(Cl)cccc1Cl (centres undefined)	142 to 145
O=c1oc(=O)n(C2CC2)c2cc(F)c(F)cc12	138 to 139
O=C(Nc1cccc(C(F)(F)F)c1)c1cccc(Oc2cccc(C(F)(F)F)c2)n1	93.1 to 93.7
CC(C)(C)c1ccc(OP(Oc2ccc(C(C)(C)C)cc2C(C)(C)C)Oc2ccc(C(C)(C)C)cc2C(C)(C)C)c(C(C)(C)C)c1	181 to 186
O=c1ccc(-c2c(-c3ccccc3)nn3ccccc23)nn1CC1CCCCN1 (centres undefined)	141 to 142
Cc1cccc(NC(=O)NC2CN(Cc3ccccc3)c3ccccc3N(CC(=O)c3ccccc3C)C2=O)c1 (centres undefined)	169 to 172
O=c1[nH]ncc(Cl)c1NCCN1CCN(c2cccc(C(F)(F)F)c2)CC1	220 to 223
C=CCN(CCC)S(=O)(=O)NC(=O)c1cc(N)c(F)cc1Cl	104 to 106
Nc1cc(C(=O)O)ccc1C(F)(F)F	175 to 177
CC=CC(=O)c1c(CCC)n(Cc2ccccc2Cl)c2cc(C(N)=O)ccc12	186
CC(C)(O)Cn1c(CO)nc2c(N)nc3cc(-c4cccc(C(=O)N5CCOCC5)c4)cnc3c21	153 to 155
CC(C)CCN1CCC(CNC(=O)c2cc(Cl)c(N)[nH]c2=O)CC1	131 to 135
O=c1[nH]c2ccc(C(O)CN3CCC(O)(c4ccccc4)CC3)cc2o1 (centres undefined)	175 to 177
Cc1c(C#N)c(C(F)(F)F)nn1-c1c(Cl)cc(C(F)(F)F)cc1Cl	90 to 92
CCCCC[C@@H](C)C[C@H](CN)CC(=O)O	174 to 175
NC(C(=O)O)c1ccc(C(=O)O)cc1SCc1ccccc1 (centres undefined)	226
O=C(Nc1cc(Cl)ccn1)c1ccccn1	118 to 120
BrC(Br)(Br)c1nnnn1-c1ccccc1	141 to 142
CC(=O)NC[C@H]1CN(c2ccc(N3CCC(c4nnn[nH]4)CC3)c(F)c2)C(=O)O1	148 to 150
CCOC(=O)C(CC1C(O)C2CCN1CC2)c1ccccc1 (centres undefined)	148
CSc1ncc(C#N)c(NC(C)C)n1	121 to 122
C=C(C)C(CC=C(C)C)CC12CC(CC=C(C)C)C(C)(C)C(CC=C(C)C)(C(=O)C(C(=O)c3ccc(O)c(O)c3)=C1O)C2=O (centres undefined)	126
CNCC(O)c1cn(C(c2ccccc2)(c2ccccc2)c2ccccc2)cn1 (centres undefined)	169 to 171

Structure (SMILES)	melting point [°C]
FC(F)(F)c1ccc(-c2ccnc(Nc3ccccc3)n2)cc1	162 to 163
O=C(Nc1ccccc1C(=O)O)OCc1ccccn1	172 to 175
CCCCC1(CCCC)CCc2c(O)cccc2C1O (centres undefined)	82 to 83
OCc1cn(-c2c(Cl)cc(C(F)(F)F)cc2Cl)nn1	123 to 125
Nc1ncnc2c([C@@H]3N[C@H](CO)[C@@H](O)[C@H]3O)c[nH]c12	238
N#Cc1nn(-c2c(Cl)cc(C(F)(F)F)cc2Cl)c(N)c1S(=O)(=O)C(F)(F)F	219 to 222
CSc1cc2c(cc1C(F)(F)F)N(C(=O)Nc1cccc(C(=O)NCCN3CCCC3)c1)CC2	91 to 93
Cc1nn(-c2ccc(C(F)(F)F)cn2)cc1C=O	226 to 227
C=COCCN1C(=O)CN(C)C1=O	54 to 56
CC(C)c1ccc(-c2ccc(Sc3ccccc3)s2)cc1	61 to 63
CCOC(=O)c1[nH]c(C)c(C(C)C)c1C	105 to 108
NC(Cc1ccccc1)C(=O)NC1N=C(c2ccccc2)c2ccccc2NC1=O (centres undefined)	208 to 210
CC1=CC(c2cccc(F)c2)C2=C(CCCC2=O)N1 (centres undefined)	216 to 218
O=c1[nH]c(=S)[nH]cc1Cc1cccc(Cl)c1	192 to 195
O=C(COC(=O)Cc1ccccc1Nc1c(Cl)cccc1Cl)NCCO[N+](=O)[O-]	81 to 83
C[C@H]([C@](O)(Cn1cncn1)c1ccc(F)cc1F)S(=O)(=O)N1CCCC1	149 to 150
CC(C)(C)OC(=O)N[C@@H](Cc1cc(F)cc(F)c1)[C@H](O)CCl	149
Cc1cccc2c(C=C(Br)Br)csc12	75 to 78
O=C(Cc1ccccc1N1CCCC1)N1C[C@@H]2SCCC(c3ccccc3)(c3ccccc3)[C@@H]2C1 (racemic)	166
Oc1ccc(F)c(O)c1F	100 to 101
NC(=S)N(c1ccsc1-c1nc(C2CC2)no1)C1CN2CCC1CC2 (centres undefined)	155 to 157
CCCCCCCCCCCCC1=C(O)C(=O)c2ccccc2C1=O	85 to 87
CC(C)(C)OC(=O)NC1CCCC1CO (centres undefined)	107 to 108
NNC(=O)C=Cc1cc2ccccc2o1	173 to 174
CCCCc1nn(-c2cc(N)ccc2Cl)c(C(=O)OCC)c1Cc1ccc(-c2ccccc2S(=O)(=O)NC(=O)c2ccccc2Cl)cc1	> 75
Cc1ccncc1CN1CCC(=C2c3ccc(Cl)cc3CCc3cccnc32)CC1	95.5 to 101

Further lines, results first:

melting point [°C]	Structure (SMILES)
120	CCCC(=O)C1c2cccc(OC(=O)C(C)(C)C)c2C(=O)c2c(OC(=O)C(C)(C)C)cccc21
205 to 206	COC(=O)c1ccc(NC(=O)c2sc3ccc(OC)cc3c2Cl)cc1
93 to 97	FC(F)(F)C(/C=C/c1ccc(-n2cncn2)cc1)c1cc(Cl)cc(Cl)c1 (centres undefined)
81 to 84	COc1ccc(-c2cc(Cc3ccc(OC)c(OC4CCCC4)c3)cn2-c2ccc(S(N)(=O)=O)cc2)cc1
116 to 118	CNc1nc(-c2cccc(OCc3ccccc3)c2)c2cc(OC)c(OC)cc2n1
90 to 91	CC(C)(C)OC(=O)N[C@@H](Cc1ccc2ccccc2c1)C(=O)OCc1ccccc1
73 to 85	N#CCc1ccc([N+](=O)[O-])c(OCc2ccccc2)c1
126 to 128	COc1cc(C(=O)N(C(C)C)C2CCCCC2)ccc1Oc1cc(OC)c(OC)c(OC)c1
200 to 205	COc1ccc2c(=O)[nH]ncc2c1
212 to 215	Cc1cccc(C)c1NC(=O)c1ccc([N+](=O)[O-])cc1
159 to 160	Cc1oc(-c2ccccc2)nc1COc1ccc(COc2cccc(CC(=O)O)c2)cc1
76 to 77	CCN(C)c1cc(OC)c(C(=O)NC2CCN(Cc3ccccc3)C2)cc1Cl (centres undefined)
112 to 116	Oc1ccc(C2COc3cc(O)ccc3C2c2ccc(OCCN3CCCC3)cc2)cc1 (centres undefined)
86 to 88	CCOC(=O)C1=C(C)N=C(SCc2ccc(OC)cc2)N(S(=O)(=O)c2ccccc2)C1c1cccc([N+](=O)[O-])c1 (centres undefined)
149 to 150	Cc1ccc2c(c1)Oc1sc(C)cc1C(N1CCN(C)CC1)=N2
142 to 143	CCC(CC)N(C)c1cc(C(=O)OC)ccc1N1C(=O)CCC1(CO)CO
203 to 204	Cc1c(C(=O)OCc2ccccc2)[nH]c2cc3c(sc4ccccc43)c(C)c12
115 to 116	O=C(O)Cc1ccccc1OCc1ccc(OCc2csc(-c3ccccc3)n2)cc1
132 to 133	CCn1ncc2c(N)c3c(nc21)CCc1ccccc1C3=O
104 to 105	CCCCNC1=CC(=O)c2c(OC)ccc(OC)c2C1=O
137 to 140	COC(=O)c1cccc(-c2ccccc2OC2OC(C)C(O)C(O)C2O)c1 (centres undefined)
179 to 180	CC(C)S(=O)(=O)c1cc(OCc2ccccc2)c2[nH]nc(N)c2c1
171 to 173	CCOc1ccc(C(=O)N2CCc3nnc(NN)cc3C2)cc1

melting point [°C]	Structure (SMILES)
67 to 69	CCCCOCCOc1ccc(-c2ccc(N3CC(C)C(C)C3)c(C=C(C)C(=O)OCC)c2)cc1 (centres undefined)
79 to 80	COc1cc(-c2ncc(C(F)(F)F)cc2F)c(F)cc1Cl
169 to 170	O=C1N(Cc2ccc(OCc3ccccc3)cc2)c2ccccc2C12COc1cc3c(cc12)CCO3 (centres undefined)
188	CC(C)(C)OC(=O)NC(Cc1ccccc1)C(=O)Oc1ccc(/C=c2\[nH]c(=O)/c(=C/c3ccccc3)[nH]c2=O)nc1 (centres undefined)
145 to 146	C/C=C/Cn1c(Cc2cc(C)cc(C)c2)c(CC)c(=O)[nH]c1=O
73 to 75	Cc1ccc(C)n1-c1ccccc1OCC(O)CNC(C)C (centres undefined)
225 to 226	Cc1nc(-n2ccc3c(OCc4ccccc4)cccc3c2=O)sc1C(=O)NCc1ccccc1
272 to 274	O=C(O)c1cccc(-c2cc([N+](=O)[O-])ccc2F)c1
130 to 132	c1ccc(OCCSCc2nnc(-c3ccc4[nH]ccc4c3)o2)cc1
184 to 186	COc1ccc(S(=O)(=O)Nc2cc(C(=O)Nc3ccccc3)ccc2OC)cc1
119 to 120	CCc1nc(C(=O)c2c(C)cc(C)cc2C)c(C=O)n1C(CC)CC
187 to 188	N#Cc1ccc2oc(CCCCc3cc4cc(C#N)ccc4o3)cc2c1
60 to 61	CCCCCCCCCCCCCCOc1cc(C(=O)Cl)ccc1OC
82 to 83	CCCOc1ccc(/C=C/c2cc(OC)c(OC)c(OC)c2)cc1
97 to 100	Oc1ccccc1Oc1ccc(Cl)cn1
133 to 134	CC(C)(Cc1ccc(O)c2ncccc12)[N+](=O)[O-]
132 to 134	COc1cc([N+](=O)[O-])ccc1-c1cnn(C)c1
169 to 170	COc1cc(COc2nn(C)cc2C(=O)O)ccc1OCc1nc(-c2ccccc2)oc1C
139 to 141	Nc1ccc(OCc2ccccc2)cc1[N+](=O)[O-]
210 to 211	CCC(CC)CNC(=O)c1ccc2cccc(Cc3ccc(C(=O)NS(=O)(=O)c4ccccc4)cc3OC)c2c1
157 to 158	Cn1cc(OS(C)(=O)=O)c(=O)c2ccc(Cl)cc21
121 to 128	CC(C)COc1c(-c2ccc(S(C)(=O)=O)cc2)cnn(-c2ccc(F)cc2)c1=O
> 250	Cc1cc(-c2ccc(C(F)(F)F)cc2)cc(-c2ccnc(-c3cccc(S(N)(=O)=O)c3)n2)n1
